# Test results from ChEMBL document CHEMBL1126405, “Novel Biologically Active Taxol Analogues: Baccatin III 13-(N-(p-chlorobenzoyl)-(2R,3S)-3-phenylisoserinate) and Baccatin III 13-(N-benzoyl-(2R,3S)-3-(p-chlorophenyl)isoserinate)” (1992).
# What was measured:
# [1] = Effective dose required to promote microtubule assembly at 10 uM tubulin concentration; format: functional
# B16 = experiment: The compound was tested for cytotoxicity against B16 melanoma cells; format: functional; conditions: Mus musculus, read-out: ED50 (the source's name)
SMILES,ED50 [1] [nM],EC50 (B16) [nM]
CC(=O)O[C@H]1C(=O)[C@]2(C)[C@@H](O)CC3OC[C@@]3(OC(C)=O)[C@H]2[C@H](OC(=O)c2ccccc2)[C@]2(O)C[C@H](OC(=O)[C@H](O)[C@@H](NC(=O)c3ccc(Cl)cc3)c3ccccc3)C(C)=C1C2(C)C (stereo partly specified),1700,43
CC(=O)O[C@H]1C(=O)[C@@]2(C)[C@H]([C@H](OC(=O)c3ccccc3)[C@]3(O)C[C@H](OC(=O)[C@H](O)[C@@H](NC(=O)c4ccccc4)c4ccccc4)C(C)=C1C3(C)C)[C@]1(OC(C)=O)CO[C@@H]1C[C@@H]2O [PACLITAXEL],700,28
CC(=O)O[C@H]1C(=O)[C@@]2(C)[C@H]([C@H](OC(=O)c3ccccc3)[C@]3(O)C[C@H](OC(=O)[C@H](O)[C@@H](NC(=O)c4ccccc4)c4ccc(Cl)cc4)C(C)=C1C3(C)C)[C@]1(OC(C)=O)CO[C@@H]1C[C@@H]2O,1300,61
